Test results published in PubChem BioAssay (NCI).
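Five compound concentrations were applied to cells in 96-well plates for 48 hours; endpoints were derived by simple linear interpolation of the resulting dose-response curve. GI50 is the concentration that inhibits growth by half. Definition used: TGI = concentration required for complete inhibition of growth.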

Assays:
Assay in all cases: DTP human tumour cell line panel, 48 h
UO-31 renal = system: UO-31 renal
CAKI-1 renal = system: CAKI-1 renal
HCC-2998 colon = system: HCC-2998 colon
IGROV1 ovarian = system: IGROV1 ovarian
U251 CNS = system: U251 CNS
RXF 393 renal = system: RXF 393 renal
HCT-15 colon = system: HCT-15 colon
SN12C renal = system: SN12C renal
NCI-H226 lung = system: NCI-H226 lung
M14 melanoma = system: M14 melanoma

| SMILES | GI50 (UO-31 renal) [µM] | TGI (UO-31 renal) [µM] | GI50 (CAKI-1 renal) [µM] | TGI (CAKI-1 renal) [µM] | GI50 (HCC-2998 colon) [µM] | TGI (HCC-2998 colon) [µM] | GI50 (IGROV1 ovarian) [µM] | TGI (IGROV1 ovarian) [µM] | GI50 (U251 CNS) [µM] | TGI (U251 CNS) [µM] | GI50 (RXF 393 renal) [µM] | TGI (RXF 393 renal) [µM] | GI50 (HCT-15 colon) [µM] | TGI (HCT-15 colon) [µM] | GI50 (SN12C renal) [µM] | TGI (SN12C renal) [µM] | GI50 (NCI-H226 lung) [µM] | TGI (NCI-H226 lung) [µM] | GI50 (M14 melanoma) [µM] | TGI (M14 melanoma) [µM] |
| --- | --- | --- | --- | --- | --- | --- | --- | --- | --- | --- | --- | --- | --- | --- | --- | --- | --- | --- | --- | --- |
| COc1ccc(-c2nsc3c2NC(=O)CC3c2cccc(F)c2)cc1 (stereo not given) | > 100 | > 100 | 4.69 | > 100 | 7.18 | > 100 | 13.8 | > 100 | 5.55 | > 100 | 4.04 | > 100 | 2.41 | > 100 | 5.2 | > 100 | 6.74 | > 100 | 3.44 | > 100 |
| Cc1c(C(=O)/C=C/c2ccc(Cl)cc2)nnn1-c1ccnc2c(C(F)(F)F)cccc12 | 33.5 | > 100 | 53.7 | > 100 | 72.8 | > 100 | 97.3 | > 100 | 12.9 | 47.8 | 1.05 | 34.1 | 54.6 | > 100 | 16.3 | > 100 | 22.6 | > 100 | > 100 | > 100 |
| COC(=O)/C(=N\Nc1nc(=S)[nH]n1N)C(C#N)c1ccc(Cl)cc1 (stereo not given) |  | > 100 |  | > 100 |  | > 100 |  | > 100 |  | > 100 |  | > 100 |  | > 100 |  | > 100 |  | > 100 |  | > 100 |
| CCCCCC1CC=CC(NC(=O)OCc2ccccc2)C1/C=C/CCCC1OCCO1 (stereo not given) |  | 72.2 |  | > 100 |  | > 100 |  | > 100 |  | > 100 |  | > 100 |  | > 100 |  | > 100 |  | > 100 |  | > 100 |
| N#Cc1ccc(O)c(C2=NCC(c3ccc(-c4ccccc4)cc3)O2)c1 (stereo not given) | 0.406 | 4.13 | 0.106 | 13.1 | 0.628 | 21.6 | 0.478 | 14.3 | 0.326 | 11.6 | 0.487 | 5.55 | 0.0896 | 20.4 | 0.606 | 16.9 | 0.589 | 12.7 | 0.399 | 2.95 |
| CC(C)c1ccc(C(c2c(O)c3ccccc3oc2=O)c2c(O)c3ccccc3oc2=O)cc1 |  | 28.4 |  | 46.5 |  | 35.2 |  | > 62.6 |  | 30.1 |  | 48.1 |  | 46.4 |  | 48.6 |  | 42.2 |  | 38.4 |
| COc1ccc(C(=O)/C=C/c2c(C(F)(F)F)nc3ccccn23)cc1OC | 1.62 | 29.5 | 1.71 | > 24.5 | 0.553 | 2.23 | 0.508 | 3.41 | 1.1 | > 100 | 1.97 | 8.68 | 1.57 | > 100 | 3.53 | > 100 | 3.97 | > 100 | 2.22 | > 66.7 |
